For one molecule, Kd, EC50 and Ki results are on record in patent publication US12012394B2, “Alpha-synuclein ligands” (Washington University, priority 2018, dated 2024).

The structures appear in SMILES notation.

In experiment [1] the target is Banner PD-seeded α-synuclein fibrils (Homo sapiens (Human), UniProt P37840). Description: Homologous competition radioligand binding assay, PD-seeded fibrils. To be noted: 150 nM Banner PD seeded fibrils. On the procedure: The equilibrium dissociation constant (Kd) for a series of compounds was determined using direct radioactive competitive binding assays (homologous or heterologous) with either recombinant α-synuclein fibrils or brain tissue homogenates from AD cases.
Recombinant protein was produced in E. coli using protocols based on previously described methods for α-synuclein [Giasson, B. I., et al., “Mutant and wild type human alpha-synucleins assemble into elongated filaments with distinct morphologies in vitro,” 1999, J Biol. Chem., 274:7619-7622; Huang, C., et al., “A new method for purification of recombinant human alpha-synuclein in Escherichia coli,” 2005, Protein Expr Purif, 42:173-177; Yu, L., et al, “Synthesis and in vitro evaluation of á-synuclein ligands,” 2012, Bioorg. Med. Chem., 20:4625-4634] and tau [Li, W., et al., “Characterization of two VQIXXK motifs for tau fibrillization in vitro,” 2006, Biochemistry, 45:15692-15701]. BL21(DE3)RIL E. coli were transformed with a pRK172 bacterial expression plasmid containing the human α-synuclein coding sequence. […]. Overnight cultures were centrifuged at 3,900×g for 10 min at 25° C. and the bacterial pellets were resuspended by gentle vortexing in 20 ml osmotic shock buffer (30 mM Tris-HCl, 2 mM EDTA, 40% Sucrose, pH 7.2) and then incubated at room temperature for 10 min. The cell suspension was then centrifuged at 8,000×g for 10 min at 25° C. and the pellet was resuspended in 22.5 ml cold H2O before adding 9.4 μl 2 M MgCl2 to each tube. The suspension was incubated on ice for 3 min prior to centrifugation at 20,000×g for 15 min at 4° C. After the supernatant was transferred to a fresh tube, streptomycin was added to a final concentration of 10 mg/ml and centrifuged at 20,000×g for 15 min at 4° C. The supernatant from this step was collected and dithiothreitol (DTT) and Tris-HCl pH 8.0 were added to final concentrations of 1 mM and 20 mM respectively, before boiling for 10 min to precipitate heat-sensitive proteins, which were pelleted at 20,000×g for 15 min at 4° C. The supernatant was collected and filtered through a 0.45 μm surfactant-free cellulose acetate filter (Corning) before loading onto a 1 ml DEAE Sepharose column equilibrated in 20 mM Tris-HCl pH 8.0, 1 mM EDTA, and 1 mM DTT. The DEAE column was washed with 20 mM Tris-HCl pH 8.0, 1 mM EDTA, 1 mM DTT before eluting α-synuclein protein in 20 mM Tris-HCl pH 8.0 buffer with 1 mM EDTA, 1 mM DTT and 0.3 M NaCl. Purified α-synuclein protein was dialyzed overnight in 10 mM Tris-HCl pH 7.6, 50 mM NaCl, 1 mM DTT.
Purified recombinant α-synuclein monomer (2 mg/ml) was incubated in 20 mM Tris-HCl, pH 8.0, 100 mM NaCl for 72 h at 37 C with shaking at 1000 rpm in an Eppendorf Thermomixer. […] The concentration of α-synuclein monomer in the supernatant was determined in a BCA protein assay according to the manufacturer's instructions, using a bovine serum albumin (BSA) standard curve. The measured decrease in α-synuclein monomer concentration was used to determine the concentration of fibrils in the 72 h fibril reaction mixture. […]
These direct binding assays used a fixed concentration of either fibrils or PD/AD tissue and the radioligand (e.g., [^18F]28) and varying concentration ranges of corresponding homologous non-radiolabeled standard reference compound. […] Reactions were incubated at 37° C. for 1 h before quantifying bound radioligand. […]

The next experiment concerns the target PD-seeded fibrils (Homo sapiens (Human), UniProt P37840). The experiment is described as follows: Heterologous competition binding assay with [18F]TZ61-44 as radioligand. Particulars: radioligand [18F]TZ61-44, 25 nM PD-seeded fibrils. On the procedure:
The equilibrium inhibitor constant (Ki) of a series of compounds was measured using heterologous radioactive binding assays with [^18F]TZ61-44, […], or [^125I]TZ61-84 as the screening radioligands. EC50 values for each compound were determined by fitting the data to the equation Y=Bottom+(Top−Bottom)/(1+(X−Log EC50)^−Hillcoefficient) using nonlinear regression by Kaleidagraph software, where Top and Bottom are the Y values for the top and bottom plateaus of the binding curve. The Ki values were derived from the EC50 values using the Cheng-Prusoff equation: Ki=EC50/(1+[radioligand]/Kd). FIGS. 5A-5E show the inhibition curves for TG-1-90B, TZ55-101, TZ61-84, TZ55-107, and TZ55-81 using [^18F]TZ61-44 as the radioligand. FIG. 11B-C show the inhibition curves for two separate experiments on PD fibrils for TZ55-101 using […] as the radioligand. FIGS. 12A-12F show the inhibition curves for TZ66-3, TZ64-015, TZ64-016, TZ64-018, TZ64-019, and TZ64-020 using [^18F]TZ61-44 as the radioligand. FIGS. 13A-13D show the inhibition curves for TZ66-9, TZ66-8, and TZ55-107 using [^18F]TZ61-44 as the radioligand.

On to `COc1ccc2nc(-c3csc(C=O)c3)ccc2c1` [TZ55-81], for which the Kd in experiment [1] is 29 nM. Also, at PD-seeded fibrils, the midpoint of the response, the EC50, lay at 46 nM. This molecule showed a Ki on PD-seeded fibrils (Cheng-Prusoff from EC50) of 43 nM.

The Kd is a measure of binding affinity in units of concentration. A word on the EC50: it is the concentration at which the effect is half-maximal. Lower therefore signals a more potent agent. As usually defined, the Ki is the equilibrium dissociation constant of an inhibitor or competing ligand from its target.
